Results reported in patent publication US10836727B2, “Crystal forms of lenvatinib” (Indena S.P.A., priority 2016, dated 2020).

Tests used:
[1] = DVS analysis (percentage change in mass as function of relative humidity change); format: physicochemical; settings: for sorption and desorption of water (reversibility): methanesulfonate
From the text: DVS analysis, shown in FIG. 11, reports the percentage change in mass as of the relative humidity change.
The DVS analysis, shown in FIG. 22, reports the percentage change in mass as function of the relative humidity change.

[2] = XRPD of the sample recovered at the end of DVS analysis; format: physicochemical; settings: methanesulfonate
Method: The X-ray powder diffractogram (XRPD) has been obtained using the instrument X′Pert PRO PANalytical with single scan, using Kα1 radiation. The diffractogram is measured in reflection mode in the range 3-40° 2θ.

COc1cc2nccc(Oc3ccc(NC(=O)NC4CC4)c(Cl)c3)c2cc1C(N)=O [H2O-1, 4-[3-Chloro-4-(N′-cyclopropylureido)phenoxy]-7-methoxyquinoline-6-carboxamide methanesulfonate]
sorption and desorption of water (reversibility) ([1]; DVS analysis): reversible
mass increased percentage ([1]; DVS, between 40% and 80% RH of the absorption cycle): 10.9%
hygroscopicity classification ([1]; from DVS mass increase between 40% and 80% RH): hygroscopic
diffractogram / crystal structure after DVS [2]: did not show any important modification

COc1cc2nccc(Oc3ccc(NC(=O)NC4CC4)c(Cl)c3)c2cc1C(N)=O [ACA-1 HT DRY, 4-[3-Chloro-4-(N′-cyclopropylureido)phenoxy]-7-methoxyquinoline-6-carboxamide methanesulfonate]
sorption and desorption of water (reversibility) ([1]; DVS analysis): not very reversible
diffractogram / crystal structure after DVS [2]: quite amorphous but its crystal structure did not change

COc1cc2nccc(Oc3ccc(NC(=O)NC4CC4)c(Cl)c3)c2cc1C(N)=O [DMSO-2, 4-[3-Chloro-4-(N′-cyclopropylureido)phenoxy]-7-methoxyquinoline-6-carboxamide methanesulfonate]
weight loss of the sample between the start and the end of analysis ([1]; DVS analysis, compatible with the loss of 1 mol of DMSO): 12.34%
sorption and desorption of water (reversibility) ([1]; DVS analysis): not reversible
